What all share (type): biochemical
In assay [1] the target is T1, human JAK3 (a.a. 781-1124) (Homo sapiens, UniProt P52333).
T1 construct: JAK3 (a.a. 781-1124); His tag (N); made in house; host or cells: insect cells (baculovirus)
As to the kind of experiment: In vitro JAK kinase assay (HTRF, phosphorylation of a biotinylated peptide), JAK3. An outline of the steps:
(§1)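 Kinase reactions ran at room temperature for 1 h with ATP matched per isoform (JAK1 90 μM, JAK2 30 μM, JAK3 3 μM). After an EDTA stop, the phosphorylated biotin-peptide was read by HTRF using Eu-Py20 and SA-APC after 40 min binding.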

In assay [2] the target is T2, human JAK1 (a.a. 837-1142) (Homo sapiens, UniProt P23458).
T2 construct: human JAK1 (a.a. 837-1142); His tag (N); made in house; host or cells: insect cells (baculovirus)
T2 sequence (P23458 849-1154): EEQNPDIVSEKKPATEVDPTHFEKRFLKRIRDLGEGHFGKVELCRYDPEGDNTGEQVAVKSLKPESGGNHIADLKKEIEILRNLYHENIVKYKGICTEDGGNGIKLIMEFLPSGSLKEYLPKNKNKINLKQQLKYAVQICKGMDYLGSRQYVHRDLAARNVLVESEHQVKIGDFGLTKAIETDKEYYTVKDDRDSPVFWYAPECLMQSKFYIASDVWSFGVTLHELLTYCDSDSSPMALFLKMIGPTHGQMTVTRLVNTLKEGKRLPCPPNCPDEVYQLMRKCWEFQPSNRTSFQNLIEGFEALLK
As to the kind of experiment: In vitro JAK kinase assay (HTRF, phosphorylation of a biotinylated peptide), JAK1. As to conditions: read-out: JAK1 IC50. An outline of the steps: as §1
In general terms: In TR-FRET formats the signal depends on donor and acceptor labels being close together.

For assay [3], the target named is T3, human JAK2 (a.a. 828-1132) (Homo sapiens, UniProt O60674).
T3 construct: JAK2 (a.a. 828-1132); His tag (N); made in house; host or cells: insect cells (baculovirus)
T3 sequence (O60674 828-1132): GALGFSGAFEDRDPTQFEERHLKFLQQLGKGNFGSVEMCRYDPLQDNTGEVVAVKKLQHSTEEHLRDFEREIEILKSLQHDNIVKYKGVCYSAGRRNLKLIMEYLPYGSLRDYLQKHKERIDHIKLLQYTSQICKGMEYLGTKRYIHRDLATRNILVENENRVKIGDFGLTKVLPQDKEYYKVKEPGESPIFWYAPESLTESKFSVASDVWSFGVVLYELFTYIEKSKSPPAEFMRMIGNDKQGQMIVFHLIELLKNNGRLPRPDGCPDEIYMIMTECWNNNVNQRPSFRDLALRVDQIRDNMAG
The assay is described as follows: In vitro JAK kinase assay (HTRF, phosphorylation of a biotinylated peptide), JAK2. The essentials: as §1

Assay [4] addresses T4, Recombinant Human Anaplastic Lymphoma Kinase (Homo sapiens, UniProt Q9UM73).
T4 construct: purchased Invitrogen, Carlsbad, Calif
As to the kind of experiment: ALK HTRF kinase assay. An outline of the steps: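 Compounds were incubated with recombinant human ALK and a biotin-tagged peptide substrate. Product was captured with streptavidin-APC and probed with a europium anti-phosphotyrosine antibody, and plates were read for time-resolved fluorescence. Dose-response data were fitted to derive IC50.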

For the next assay, the target named is TYK2 (Homo sapiens, UniProt P29597). The assay is described as follows: TYK2 kinase inhibition (Table A1).
Sequence of TYK2 (P29597 whole entry): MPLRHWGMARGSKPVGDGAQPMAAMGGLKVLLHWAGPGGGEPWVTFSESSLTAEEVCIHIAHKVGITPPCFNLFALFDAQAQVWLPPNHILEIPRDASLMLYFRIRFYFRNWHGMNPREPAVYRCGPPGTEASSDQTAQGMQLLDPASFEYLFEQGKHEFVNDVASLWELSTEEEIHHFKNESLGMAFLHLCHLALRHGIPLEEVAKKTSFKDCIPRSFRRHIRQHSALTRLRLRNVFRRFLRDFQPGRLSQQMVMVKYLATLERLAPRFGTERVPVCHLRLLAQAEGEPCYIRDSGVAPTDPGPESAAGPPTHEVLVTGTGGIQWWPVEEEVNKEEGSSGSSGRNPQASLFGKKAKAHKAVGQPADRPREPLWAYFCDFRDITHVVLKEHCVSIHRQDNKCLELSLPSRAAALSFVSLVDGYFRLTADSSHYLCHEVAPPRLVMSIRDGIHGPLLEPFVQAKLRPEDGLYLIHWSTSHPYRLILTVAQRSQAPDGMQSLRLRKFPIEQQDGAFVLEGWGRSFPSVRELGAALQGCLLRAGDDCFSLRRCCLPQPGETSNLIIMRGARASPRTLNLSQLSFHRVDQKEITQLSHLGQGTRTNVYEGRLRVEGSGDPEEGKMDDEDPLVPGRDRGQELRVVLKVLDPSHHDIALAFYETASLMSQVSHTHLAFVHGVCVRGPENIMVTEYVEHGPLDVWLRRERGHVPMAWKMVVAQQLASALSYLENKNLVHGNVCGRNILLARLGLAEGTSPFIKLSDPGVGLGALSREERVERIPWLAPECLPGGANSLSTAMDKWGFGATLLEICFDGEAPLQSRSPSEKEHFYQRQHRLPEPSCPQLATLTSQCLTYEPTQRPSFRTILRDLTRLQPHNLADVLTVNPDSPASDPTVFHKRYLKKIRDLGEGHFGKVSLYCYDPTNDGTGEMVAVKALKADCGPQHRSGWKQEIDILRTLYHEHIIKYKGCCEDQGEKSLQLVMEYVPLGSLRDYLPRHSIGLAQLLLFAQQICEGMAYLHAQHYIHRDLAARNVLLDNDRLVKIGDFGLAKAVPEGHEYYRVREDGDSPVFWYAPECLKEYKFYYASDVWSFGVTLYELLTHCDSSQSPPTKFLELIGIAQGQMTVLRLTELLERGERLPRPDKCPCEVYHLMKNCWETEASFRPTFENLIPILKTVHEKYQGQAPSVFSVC
The mark [5] stands for this setting: compound at a concentration of 500 nM or 1 mM (not specified), cells shown as percentage.
The mark [6] stands for this setting: Table B1, cells without percent sign.
[7] abbreviates: method AA1 (3 μM ATP) or AA2 (1000 μM ATP), not stated per value.
[8] abbreviates: method AA1 (90 μM ATP) or AA2 (1000 μM ATP), not stated per value.
Where [9] appears, read: method AA1 (30 μM ATP) or AA2 (1000 μM ATP), not stated per value.
Where [10] appears, read: compound at 500 nM or 1 mM, 90 μM ATP.

The IC50 is the midpoint of a concentration-inhibition curve.

Counter-ions that a name gives are not always drawn. Like-named read-outs stand apart in the source and are kept apart here. Where only a bound is given, the exact number is not on record here.

T1 sequence (P52333 781-1124): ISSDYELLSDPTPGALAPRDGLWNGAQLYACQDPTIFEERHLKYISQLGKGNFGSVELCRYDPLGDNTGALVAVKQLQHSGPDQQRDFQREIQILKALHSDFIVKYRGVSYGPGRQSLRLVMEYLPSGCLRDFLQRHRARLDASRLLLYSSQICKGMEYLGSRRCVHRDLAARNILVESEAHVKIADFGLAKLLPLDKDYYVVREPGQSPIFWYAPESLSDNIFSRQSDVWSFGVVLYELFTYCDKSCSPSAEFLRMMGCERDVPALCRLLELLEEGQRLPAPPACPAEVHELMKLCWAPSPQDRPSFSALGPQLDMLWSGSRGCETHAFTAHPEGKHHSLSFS
T4 sequence (Q9UM73 19-1620): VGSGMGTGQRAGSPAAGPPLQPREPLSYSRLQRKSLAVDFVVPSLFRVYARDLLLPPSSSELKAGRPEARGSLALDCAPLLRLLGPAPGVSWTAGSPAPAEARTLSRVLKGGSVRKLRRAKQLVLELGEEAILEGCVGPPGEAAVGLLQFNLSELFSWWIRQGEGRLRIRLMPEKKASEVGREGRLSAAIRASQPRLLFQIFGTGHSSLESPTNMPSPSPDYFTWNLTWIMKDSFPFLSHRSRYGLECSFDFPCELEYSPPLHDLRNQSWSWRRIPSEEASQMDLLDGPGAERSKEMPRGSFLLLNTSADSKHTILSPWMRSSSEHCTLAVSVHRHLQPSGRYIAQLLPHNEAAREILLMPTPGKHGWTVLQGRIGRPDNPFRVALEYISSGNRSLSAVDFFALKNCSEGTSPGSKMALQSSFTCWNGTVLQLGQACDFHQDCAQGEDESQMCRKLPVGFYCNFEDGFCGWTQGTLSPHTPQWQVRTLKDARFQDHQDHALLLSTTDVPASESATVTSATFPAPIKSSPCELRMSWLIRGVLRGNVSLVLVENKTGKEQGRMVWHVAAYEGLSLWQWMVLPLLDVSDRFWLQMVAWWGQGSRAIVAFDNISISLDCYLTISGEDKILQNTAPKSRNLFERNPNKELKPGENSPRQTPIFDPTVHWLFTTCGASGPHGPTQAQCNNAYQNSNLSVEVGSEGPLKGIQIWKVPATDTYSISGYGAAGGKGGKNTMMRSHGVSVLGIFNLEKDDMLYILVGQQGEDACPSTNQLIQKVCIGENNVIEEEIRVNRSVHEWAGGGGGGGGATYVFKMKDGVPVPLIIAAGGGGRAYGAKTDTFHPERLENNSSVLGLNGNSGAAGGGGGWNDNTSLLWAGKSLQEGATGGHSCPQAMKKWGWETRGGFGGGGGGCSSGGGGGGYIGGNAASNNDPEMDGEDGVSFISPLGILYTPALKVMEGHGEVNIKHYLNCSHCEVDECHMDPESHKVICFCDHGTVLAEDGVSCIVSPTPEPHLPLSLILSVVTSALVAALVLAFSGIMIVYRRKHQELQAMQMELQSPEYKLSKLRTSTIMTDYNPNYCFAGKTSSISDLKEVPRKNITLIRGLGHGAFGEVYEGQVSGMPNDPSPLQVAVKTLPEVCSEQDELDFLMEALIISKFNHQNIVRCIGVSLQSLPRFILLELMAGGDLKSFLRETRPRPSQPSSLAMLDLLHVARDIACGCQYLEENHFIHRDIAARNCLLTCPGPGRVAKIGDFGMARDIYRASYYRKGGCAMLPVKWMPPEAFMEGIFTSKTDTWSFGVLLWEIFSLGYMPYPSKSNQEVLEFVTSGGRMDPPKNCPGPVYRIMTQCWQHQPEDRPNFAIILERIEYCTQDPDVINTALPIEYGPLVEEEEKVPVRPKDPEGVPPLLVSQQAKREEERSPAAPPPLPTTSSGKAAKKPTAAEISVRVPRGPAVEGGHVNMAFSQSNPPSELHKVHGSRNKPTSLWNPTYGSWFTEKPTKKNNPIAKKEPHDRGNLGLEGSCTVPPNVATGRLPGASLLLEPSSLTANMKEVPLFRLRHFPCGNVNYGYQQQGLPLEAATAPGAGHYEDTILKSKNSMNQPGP

For `CC1(C)Cc2cccc(NC(=O)Nc3ccc4cc3CCc3cccc(c3)Nc3ncc(Cl)c(n3)N4)c2O1` [Example B129, N-[6-Chloro-2,4,8,22-tetraazatetracyclo[14.3.1.1(3,7).1(9,13)]docosa-1(20),3(22),4,6,9(21),10,12,16,18-nonaen-12-yl]-N′-(2,2-dimethyl-2,3-dihydro-1-benzofuran-7-yl)urea trifluoroacetate], the IC50 was 184 nM in assay [1] (Table B1), 3.7 nM in assay [2] (Table B1), 9.5 nM in assay [3] (Table B1) and 32 nM at TYK2 (Table B1). The “ALK % of inhibition at a concentration of 500 nM or 1 mM” value (“ALK % of inhibition” below) in assay [4] (setting [5]) turned out to be 7.3%.
Consider `NS(=O)(=O)c1cc2cc(c1)Nc1nc(ncc1Br)Nc1cccc(c1)CC2` [Example B18, 6-Bromo-2,4,8,22-tetraazatetracyclo[14.3.1.1(3,7).1(9,13)]docosa-1(20),3(22),4,6,9(21),10,12,16,18-nonaene-11-sulfonamide trifluoroacetate], for which the IC50 is 64 nM in assay [1] (Table B1); 107 nM in assay [2] (Table B1); 23 nM in assay [3] (Table B1); more than 1000 nM in assay [4] (setting [6]); 178 nM at TYK2 (Table B1).
With `O=C(CNC(=O)Nc1ccccc1)Nc1ccc2cc1CCc1cccc(c1)Nc1ncc(Cl)c(n1)N2` [Example A66, 2-[(Anilinocarbonyl)amino]-N-[6-chloro-2,4,8,22-tetraazatetracyclo[14.3.1.1(3,7).1(9,13)]docosa-1(20),3(22),4,6,9(21),10,12,16,18-nonaen-12-yl]acetamide trifluoroacetate], the IC50 in assay [1] (setting [7]) amounted to 6.2 nM; in assay [2] (setting [8]), 9 nM; in assay [3] (setting [9]), 3.1 nM; against TYK2 it was 21 nM. Besides, the “ALK % of inhibition” value in assay [4] (setting [10]) was determined as 26%.
As to `O=S(=O)(Nc1ccc2cc1CCc1cccc(c1)Nc1ncc(Cl)c(n1)N2)c1cccc(C(F)(F)F)c1` [Example B163, N-[6-Chloro-2,4,8,22-tetraazatetracyclo[14.3.1.1(3,7).1(9,13)]docosa-1(20), 3(22),4,6,9(21),10,12,16,18-nonaen-12-yl]-3-(trifluoromethyl)benzenesulfonamide trifluoroacetate], the IC50 came out at 1.1 nM in assay [1] (Table B1), 0.54 nM in assay [2] (Table B1), 0.24 nM in assay [3] (Table B1) and 0.97 nM against TYK2 (Table B1). Besides, the “ALK % of inhibition” value in assay [4] (setting [5]) was 80%.
On to `Clc1cnc2nc1Nc1cccc(c1)CSCc1cccc(c1)N2` [Example D20, 6-Chloro-15-thia-2,4,8,23-tetraazatetracyclo[15.3.1.1(3,7).1(9,13)]tricosa-1(21),3(23),4,6,9(22),10,12,17,19-nonaene trifluoroacetate], for which the IC50 in assay [1] (Table D1) worked out at 88 nM; in assay [2] (Table D1), 41 nM; in assay [3] (Table D1) it was 32 nM; in assay [4] (Table D1, 90 μM ATP), 598 nM; against TYK2 (Table D1) it was 102 nM.
Consider `NS(=O)(=O)N1CC[C@@H](NC(=O)Nc2ccc3cc2CCc2cccc(c2)Nc2ncc(Cl)c(n2)N3)C1` [Example B179, (3R)-3-[({[6-Chloro-2,4,8,22-tetraazatetracyclo[14.3.1.1(3,7).1(9,13)]docosa-1(20),3(22),4,6,9(21),10,12,16,18-nonaen-12-yl]amino}carbonyl)amino]pyrrolidine-1-sulfonamide trifluoroacetate], for which the half-inhibitory concentration (IC50) in assay [1] (Table B1) is 1.3 nM; in assay [2] (Table B1), 0.23 nM; in assay [3] (Table B1), 0.84 nM; at TYK2 (Table B1) it was 2.8 nM. Moreover, in assay [4] (setting [5]), the “ALK % of inhibition” value stood at 43%.
As for `Nc1nc(C(=O)N2CCC(CC(=O)Nc3ccc4cc3CCc3cncc(c3)Nc3ncc(Cl)c(n3)N4)CC2)cs1` [Example A217, 2-{1-[(2-Amino-1,3-thiazol-4-yl)carbonyl]piperidin-4-yl}-N-[6-chloro-2,4,8,18,22-pentaazatetracyclo[14.3.1.1(3,7).1(9,13)]docosa-1(20),3(22),4,6,9(21),10,12,16,18-nonaen-12-yl]acetamide tris(trifluoroacetate)], the IC50 in assay [1] (setting [7]) is more than 200 nM; in assay [2] (setting [8]), 4.2 nM; in assay [3] (setting [9]), 68 nM; against TYK2, 55 nM. Also, in assay [4] (setting [10]), the “ALK % of inhibition” value is listed as 23%.
The like results for `Cc1cc(C(=O)N2CCC(CC(=O)Nc3ccc4cc3CCc3cccc(c3)Nc3ncc(Cl)c(n3)N4)CC2)no1` [Example A86, N-[6-Chloro-2,4,8,22-tetraazatetracyclo[14.3.1.1(3,7).1(9,13)]docosa-1(20),3(22),4,6,9(21),10,12,16,18-nonaen-12-yl]-2-{1-[(5-methylisoxazol-3-yl)carbonyl]piperidin-4-yl}acetamide trifluoroacetate] were, in that order, 29 nM, 0.8 nM, 2.2 nM, 1.5 nM and 32%.
For the compound `CC(=O)N1Cc2cccc(c2)Nc2nc(ncc2Cl)Nc2cccc1c2` [Example D71, 15-Acetyl-6-chloro-2,4,8,15,22-pentaazatetracyclo[14.3.1.1(3,7).1(9,13)]docosa-1(20),3(22),4,6,9(21),10,12,16,18-nonaene trifluoroacetate], the IC50 in assay [1] (Table D1) is 65 nM; in assay [2] (Table D1), 151 nM; in assay [3] (Table D1) it was 187 nM; in assay [4] (Table D1, 90 μM ATP), more than 1000 nM; on TYK2 (Table D1), 300 nM.
Regarding `O=C(Nc1ccc2cc1CCc1cccc(c1)Nc1ncc(Cl)c(n1)N2)c1cnccn1` [Example B44, N-[6-Chloro-2,4,8,22-tetraazatetracyclo[14.3.1.1(3,7).1(9,13)]docosa-1(20), 3(22),4,6,9(21),10,12,16,18-nonaen-12-yl]pyrazine-2-carboxamide bis(trifluoroacetate)], the IC50 amounted to 48 nM in assay [1] (Table B1); 13 nM in assay [2] (Table B1); 2.9 nM in assay [3] (Table B1); 300 nM in assay [4] (setting [6]); 22 nM on TYK2 (Table B1).
As to `CC(C)S(=O)(=O)N1CCC(CC(=O)Nc2ccc3cc2CCc2cccc(c2)Nc2ncc(Cl)c(n2)N3)CC1` [Example A82, N-[6-Chloro-2,4,8,22-tetraazatetracyclo[14.3.1.1(3,7).1(9,13)]docosa-1(20),3(22),4,6,9(21),10,12,16,18-nonaen-12-yl]-2-[1-(isopropylsulfonyl)piperidin-4-yl]acetamide trifluoroacetate], the half-maximal inhibitory concentration (IC50) in assay [1] (setting [7]) was determined as 17 nM; in assay [2] (setting [8]), 7.3 nM; in assay [3] (setting [9]), 3.7 nM; on TYK2, 13 nM. Further, the “ALK % of inhibition” value in assay [4] (setting [10]) is given as 31%.
For the compound `CS(=O)(=O)N1CC[C@H](NC(=O)Nc2ccc3cc2CCc2cccc(c2)Nc2ncc(Cl)c(n2)N3)C1` [Example B172, N-[6-Chloro-2,4,8,22-tetraazatetracyclo[14.3.1.1(3,7).1(9,13)]docosa-1(20),3(22),4,6,9(21),10,12,16,18-nonaen-12-yl]-N′-[(3S)-1-(methylsulfonyl)pyrrolidin-3-yl]urea trifluoroacetate], the IC50 in assay [1] (Table B1) came to 17 nM; in assay [2] (Table B1), 0.82 nM; in assay [3] (Table B1), 1.1 nM; against TYK2 (Table B1), 2.6 nM. In addition, the “ALK % of inhibition” value in assay [4] (setting [5]) amounted to 24%.
As to `COc1cccc(N2CCC(CC(=O)Nc3ccc4cc3CCc3cncc(c3)Nc3ncc(Cl)c(n3)N4)CC2)c1C#N` [Example A233, N-[6-Chloro-2,4,8,18,22-pentaazatetracyclo[14.3.1.1(3,7).1(9,13)]docosa-1(20),3(22),4,6,9(21),10,12,16,18-nonaen-12-yl]-2-[1-(2-cyano-3-methoxyphenyl)piperidin-4-yl]acetamide tris(trifluoroacetate)], the concentration for half-maximal inhibition (IC50) in assay [1] (setting [7]) was more than 400 nM; in assay [2] (setting [8]), 0.4 nM; in assay [3] (setting [9]), 19 nM; against TYK2 it was 26 nM. The “ALK % of inhibition” value in assay [4] (setting [10]) is listed as 24%.
The like results for `O=C(CC1CCN(C(=O)c2cnon2)CC1)Nc1ccc2cc1CCc1cncc(c1)Nc1ncc(Cl)c(n1)N2` [Example A138, N-[6-Chloro-2,4,8,18,22-pentaazatetracyclo[14.3.1.1(3,7).1(9,13)]docosa-1(20),3(22),4,6,9(21),10,12,16,18-nonaen-12-yl]-2-[1-(1,2,5-oxadiazol-3-ylcarbonyl)piperidin-4-yl]acetamide bis(trifluoroacetate)] were, in that order, 30 nM, 2 nM, 7.2 nM, 8 nM and 46%.

(Values after patent publication US8871753B2, “Macrocyclic compounds and their use as kinase inhibitors” (Incyte Corporation, priority 2008, dated 2014).)
